The numbers were not newly measured in patent US6821972B2, “3-heterocyclylpropanohydroxamic acid PCP inhibitors” (Pfizer Inc., priority 2001, dated 2004), which cites them from elsewhere.

Non-standard residues stand in square brackets, D forms with d. Residues, ends and D or L forms follow the SMILES beside them. *: point of attachment. Sta = CC(C)C[C@H](N)[C@@H](O)CC(=O)O; Isovaleryl = CC(C)CC(=O)*

The test system of series [1] is PCP.
Series [2] concerns endothelial cell invasion of basement membrane.
The subject of series [3] is keratinocyte migration. Particulars: collagen type I matrix, in vitro.

As for `O[C@H](CS)[C@H](O)CS` (racemic) [Dithiothreitol, reference compound], the “inhibitory to PCP at low concentrations” value in series [1] is given as “inhibitory at low concentrations”. With `CNC(=O)[C@H](Cc1ccccc1)NC(=O)[C@H](CC(C)C)[C@H](CSc1cccs1)C(=O)NO` [BB94, (2S,3R)-5-methyl-3-{[(1S)-1-(methylcarbamoyl)-2-phenylethyl]carbamoyl}-2-[(2-thienylthio)methyl]hexanohydroxamic acid], the “inhibition of endothelial cell invasion” value in series [2] is reported as “inhibits endothelial cell invasion of basement membrane”. Regarding `CNC(=O)[C@H](Cc1ccc(OC)cc1)NC(=O)[C@@H](CC(=O)NO)CC(C)C` [SC44463], in series [3], the “inhibition of keratinocyte migration” value is on record as “completely inhibited”. In the case of `CCCCCCCCCCCCOS(=O)(=O)[O-].[Na+]` [SDS, reference compound], in series [1], the “inhibitory to PCP at low concentrations” value was “inhibitory at low concentrations”.

`N.N.O=S(=O)(O)O` [ammonium sulfate]: in series [1], the “inhibitory to PCP at concentrations of 1-10 mM” value is reported as “inhibitory”. In the case of `N=C(N)NCCC[C@H](N)C(=O)O` [arginine], the “inhibition of PCP (in words)” value in series [1] was “inhibited”. Take `CC(C)C[C@H](NC(=O)[C@@H](NC(=O)N[C@@H](Cc1ccccc1)C(=O)O)[C@@H]1CCN=C(N)N1)C(=O)N[C@H](C=O)Cc1ccccc1` [chymostatin, reference compound]: the “inhibition of PCP (in words)” value in series [1] was “relatively strong inhibitors”. Turning to `NCCCC[C@H](N)C(=O)O` [lysine], in series [1], the “inhibition of PCP (in words)” value is on record as “inhibited”. As to `CC(C)CC(=O)N[C@H](C(=O)N[C@H](C(=O)N[C@@H](CC(C)C)[C@@H](O)CC(=O)N[C@@H](C)C(=O)N[C@@H](CC(C)C)[C@@H](O)CC(=O)O)C(C)C)C(C)C` [pepstatin A, reference compound] (Isovaleryl-VV[Sta]A[Sta]-OH), in series [1], the “inhibition of PCP (in words)” value is recorded as “relatively strong inhibitors”.

Consider Tris-HCl, for which the “inhibition of PCP activity by buffer” value in series [1] (0.2-0.5M) is “markedly inhibited activity”. Consider concanavalin A, for which, in series [1], the “inhibitory to PCP at low concentrations” value is “inhibitory at low concentrations”. In the case of phosphate, the “inhibitory to PCP at concentrations of 1-10 mM” value in series [1] is listed as “inhibitory”.

B1: ovostatin: "α2-Macroglobulin, ovostatin, and fetal bovine serum appear to at least partially inhibit PCP activity" (protein, UniProt P20740 37-1473, looked up)
Ovostatin: KEPEPQYVLMVPAVLQSDSPSQVCLQFFNLNQTISVRVVLEYDTINTTIFEKNTTTSNGLQCLNFMIPPVTSVSLAFISFTAKGTTFDLKERRSVMIWNMESFVFVQTDKPIYKPGQSVMFRVVALDFNFKPVQEMYPLIAVQDPQNNRIFQWQNVTSEINIVQIEFPLTEEPILGNYKIIVTKKSGERTSHSFLVEEYVLPKFDVTVTAPGSLTVMDSELTVKICAVYTYGQPVEGKVQLSVCRDFDSYGRCKKSPVCQSFTKDLDTDGCLSHILSSKVFELNRIGYKRNLDVKAIVTEKEQVCNLTATQSISITQVMSSLQFENVDHHYRRGIPYFGQIKLVDKDNSPISNKVIQLFVNNKNTHNFTTDINGIAPFSIDTSKIFDPELSLKALYKTSDQCHSEGWIEPSYPDASLSVQRLYSWTSSFVRIEPLWKDMSCGQKRMITVYYILNTEGYEHINIVNFYYVGMAKGKIVLTGEIKVNIQADQNGTFMIPLVVNEKMAPALRLLVYMLHPAKELVADSVRFSIEKCFKNKVQLQFSEKQMLTTSNVSLVIEAAANSFCAVRAVDKSMLLLKSETELSAETIYNLHPIQDLQGYIFNGLNLEDDPQDPCVSSDDIFHKGLYYRPLTSGLGPDVYQFLRDMGMKFFTNSKIRQPTVCTRETVRPPSYFLNAGFTASTHHVKLSAEVAREERGKRHILETIREFFPETWIWDIILINSTGKASVSYTIPDTITEWKASAFCVEELAGFGMSVPATLTAFQPFFVDLTLPYSIIHGEDFLVRANVFNYLNHCIKINVLLLESLDYQAKLISPEDDGCVCAKIRKSYVWNIFPKGTGDVLFSITAETNDDEACEEEALRNIRIDYRDTQIRALLVEPEGIRREETQNFLICMKDDVISQDVAIDLPTNVVEGSPRPSFSVVGDIMGTAIQNVHQLLQMPFGNGEQNMVLFAPNIYVLDYLDKTRQLSEDVKSKTIGYLVSGYQKQLSYKHPDGSYSTFGIRDKEGNTWLTAFVYKSFAEASRFIYIDDNVQAQTLIWLATKQKTDGCFQSTGILVNNAMKGGVENELSLSAYITIALLEAGHSMSHTVIRNAFYCLETASEKNITDIYTQALVAYAFCLAGKAEICESFLRELQKSAKEVDGSKYWEQNQRSAPEKSHLLDHVQSTDVEITSYVLLALLYKPNRSQEDLTKASAIVQWIIRQQNSYGGFASMQDTVVALQALAAYGAATYNSVTQNVIKINSKNTFEKVFTVNNENRLLLQQTPLPQVPGKYSLTVNGTGCVLIQTALRYNIHLPEGAFGFSLSVQTSNASCPRDQPGKFDIVLISSYTGKRSSSNMVIIDVKMLSGFVPVKSSLDQLIDDHTVMQVEYKKNHVLLYLGNILQKRRKEVTFSVEQDFVVTHPKPAPVQIYDYYETEEYAVAEYMSLCRGVVEEMG
With B1, the “inhibition of PCP (in words)” value in series [1] is reported as “at least partially inhibit”.

B2: α2-Macroglobulin: "α2-Macroglobulin, ovostatin, and fetal bovine serum appear to at least partially inhibit PCP activity" (protein, UniProt P01023 24-1474, looked up)
Alpha-2-macroglobulin: SVSGKPQYMVLVPSLLHTETTEKGCVLLSYLNETVTVSASLESVRGNRSLFTDLEAENDVLHCVAFAVPKSSSNEEVMFLTVQVKGPTQEFKKRTTVMVKNEDSLVFVQTDKSIYKPGQTVKFRVVSMDENFHPLNELIPLVYIQDPKGNRIAQWQSFQLEGGLKQFSFPLSSEPFQGSYKVVVQKKSGGRTEHPFTVEEFVLPKFEVQVTVPKIITILEEEMNVSVCGLYTYGKPVPGHVTVSICRKYSDASDCHGEDSQAFCEKFSGQLNSHGCFYQQVKTKVFQLKRKEYEMKLHTEAQIQEEGTVVELTGRQSSEITRTITKLSFVKVDSHFRQGIPFFGQVRLVDGKGVPIPNKVIFIRGNEANYYSNATTDEHGLVQFSINTTNVMGTSLTVRVNYKDRSPCYGYQWVSEEHEEAHHTAYLVFSPSKSFVHLEPMSHELPCGHTQTVQAHYILNGGTLLGLKKLSFYYLIMAKGGIVRTGTHGLLVKQEDMKGHFSISIPVKSDIAPVARLLIYAVLPTGDVIGDSAKYDVENCLANKVDLSFSPSQSLPASHAHLRVTAAPQSVCALRAVDQSVLLMKPDAELSASSVYNLLPEKDLTGFPGPLNDQDNEDCINRHNVYINGITYTPVSSTNEKDMYSFLEDMGLKAFTNSKIRKPKMCPQLQQYEMHGPEGLRVGFYESDVMGRGHARLVHVEEPHTETVRKYFPETWIWDLVVVNSAGVAEVGVTVPDTITEWKAGAFCLSEDAGLGISSTASLRAFQPFFVELTMPYSVIRGEAFTLKATVLNYLPKCIRVSVQLEASPAFLAVPVEKEQAPHCICANGRQTVSWAVTPKSLGNVNFTVSAEALESQELCGTEVPSVPEHGRKDTVIKPLLVEPEGLEKETTFNSLLCPSGGEVSEELSLKLPPNVVEESARASVSVLGDILGSAMQNTQNLLQMPYGCGEQNMVLFAPNIYVLDYLNETQQLTPEIKSKAIGYLNTGYQRQLNYKHYDGSYSTFGERYGRNQGNTWLTAFVLKTFAQARAYIFIDEAHITQALIWLSQRQKDNGCFRSSGSLLNNAIKGGVEDEVTLSAYITIALLEIPLTVTHPVVRNALFCLESAWKTAQEGDHGSHVYTKALLAYAFALAGNQDKRKEVLKSLNEEAVKKDNSVHWERPQKPKAPVGHFYEPQAPSAEVEMTSYVLLAYLTAQPAPTSEDLTSATNIVKWITKQQNAQGGFSSTQDTVVALHALSKYGAATFTRTGKAAQVTIQSSGTFSSKFQVDNNNRLLLQQVSLPELPGEYSMKVTGEGCVYLQTSLKYNILPEKEEFPFALGVQTLPQTCDEPKAHTSFQISLSVSYTGSRSASNMAIVDVKMVSGFIPLKPTVKMLERSNHVSRTEVSSNHVLIYLDKVSNQTLSLFFTVLQDVPVRDLKPAIVKVYDYYETDEFAIAEYNAPCSKDLGNA
With B2, the “inhibition of PCP (in words)” value in series [1] was “at least partially inhibit”.
